Patent US7279321B2, “Methods for increasing the resistance of a host cell to aromatic carboxylic acids” (priority 2003, dated 2007)
≈ marks a conversion by molar mass, not a printed value.

How the values were obtained:
Format in all cases: cell-based
[1] = system: E. coli DPD2444 (yhcP−); assay: microbe, parasite or virus in culture; conditions: for MIC, DPD2444 (yhcP−): 16 to 18 hours at 37° C., 0.01% tetrazolium violet; for Fold Diff: MIC MG1655 versus MIC DPD2444; for MIC: Escherichia coli, read-out: MIC, DPD2444 (yhcP−); for defined as substrate of the YhcP efflux pump by this genetic test: MIC difference at least 2-fold and rank at least 2
Method: (§1) Additional compounds were tested for growth inhibition of E. coli MG1655 (yhcP^+) and DPD2444 (yhcP^−) in Vogel-Bonner medium with glucose as the carbon source and with 0.01% tetrazolium violet added as an indicator of viability. A series of two-fold dilutions of each chemical was made to the wells of a clear 96-well microplate in 50 μl volume. To these wells was added 50 μl of an overnight culture in Vogel Bonner medium with glucose as a carbon source of either MG1655 or DPD2444 that had been previously diluted 500-fold into fresh medium. The plates were incubated at 37° C. without shaking for 16 to 18 hours. The purple color in each well was visually scored. A score of 4+ indicated full purple color equivalent to a no chemical control well. Scores of 3+, 2+, or 1+ indicated decreasing amounts of purple color. A score of − indicated the complete absence of color. The MIC was defined as the lowest tested concentration that gave complete absence of color. The rank of difference between strains was defined as the score of pigment color for E. coli MG1655 in wells containing the concentration of a given chemical at the MIC for DPD24444. When MG1655 had no color, the score was 0. When MG 1655 was scored at 1+, the score was 1, when scored at 2+, the score was 2, etc.

[2] = system: E. coli MG1655 (yhcP+); assay: microbe, parasite or virus in culture; conditions: for MIC, MG1655 (yhcP+): 16 to 18 hours at 37° C., 0.01% tetrazolium violet; for Rank Diff: score of pigment color for MG1655 at the MIC for DPD2444 (0 = no color, 4 = full purple color); for MIC: Escherichia coli, MG1655, read-out: MIC, MG1655 (yhcP+)
Method: as §1

[3] = system: E. coli strain DPD2444 (yhcP−, strain 16) compared with MG1655 (yhcP+, strain 14); assay: Phenotype MicroArray chemical sensitivity test (Biolog)
Method: To further define substrates of this efflux system, other molecules were tested with this genetic test. […] E. coli strains DPD2444 (yhcP^−) and MG1655 (yhcP^+) were tested for inhibition by a large number of chemicals at Biolog Inc. (Hayward, Calif.) using the Phenotype MicroArray™ 1-20. The basis of this technology has been described in a recent publication (Bochner et al., Genome Res., 11:1246-1255 (2001)). The chemical sensitivity test was done with 240 compounds at 4 concentrations each. These chemicals included aromatic and heterocyclic molecules, such as acriflavin, dichloro-8-hydroxyquinoline, 9-aminoacridine, fusaric acid, salicylic acid, phenylethanol, o-cresol, m-cresol, p-cresol, pentachlorophenol, coumarin, DL 3-phenyl lactic acid, and cinnamic acid. Also included were numerous antibiotics and other antimicrobial compounds, including several weak acids and other compounds that would disrupt proton flux. Cinnamic acid was the only compound of the 240 tested for which strain DPD2444 was hypersensitive as compared with MG1655. The report regarding the increased sensitivities of strain DPD2444 (strain 16) compared with MG1655 (strain 14) is quoted below in Table 6.

[4] = system: yhcP gene (co-transcribed with yhcQ and yhcR); assay: expression of yhcP upon treatment of E. coli cells with aromatic carboxylic acids

Row | SMILES | MIC, DPD2444 (yhcP−) [1] | Fold Diff [1] | MIC, MG1655 (yhcP+) [2] | Rank Diff [2] | MIC [1] [mM] | MIC [2] [mM] | defined as substrate of the YhcP efflux pump by this genetic test [1] | sensitivity of strain DPD2444 as compared with MG1655 (in words) ([3]; 240 compounds at 4 concentrations each) | Phenotypes Lost - Slower Growth/Sensitivity: Difference ([3]; PM19, well C 11, Strain 16 (DPD2444) vs Strain 14 (MG1655)) | difference in growth inhibition of the two strains (in words) ([1]; MG1655 versus DPD2444) | expression of the yhcP gene upon treatment of E. coli cells [4]
1 | O=C(O)c1ccc(C(=O)O)c2ccccc12 [1,4-naphthalenedicarboxyylic acid] | 10 mM (≈ 2160 µg/mL) | 1 | 10 mM (≈ 2160 µg/mL) | 0 |  |  |  |  |  |  | 
2 | Oc1cccc2c(O)cccc12 [1,5-dihydroxynaphthalene] |  | 2 |  | 1 | 0.25 (≈ 40 µg/mL) | 0.5 (≈ 80.1 µg/mL) |  |  |  |  | 
3 | Oc1ccc2c(O)cccc2c1 [1,6-dihydroxynaphthalene] |  | 2 |  | 1 | 0.25 (≈ 40 µg/mL) | 0.5 (≈ 80.1 µg/mL) |  |  |  |  | 
4 | O=C(O)c1ccc2ccccc2c1O [1-hydroxy-2-naphthoic acid] |  | 1 |  | 0 | 0.62 (≈ 117 µg/mL) | 0.62 (≈ 117 µg/mL) |  |  |  |  | 
5 | O=C(O)c1cccc2ccccc12 [1-naphthoic acid] |  | 1 |  | 0 | 2.5 (≈ 430 µg/mL) | 2.5 (≈ 430 µg/mL) |  |  |  |  | 
6 | O=C(O)c1cccc(O)c1O [2,3-dihydroxybenzoic acid] |  | 1 |  | 0 | 10 (≈ 1540 µg/mL) | 10 (≈ 1540 µg/mL) |  |  |  |  | 
7 | O=C(O)c1cc2ccccc2cc1C(=O)O [2,3-naphthalenedicarboxylic acid] |  | 1 |  | 0 | 80 (≈ 17300 µg/mL) | 80 (≈ 17300 µg/mL) |  |  |  |  | 
8 | COc1cccc(OC)c1O [2,6-dimethoxyphenol] |  | 1 |  | 0 | 5 (≈ 771 µg/mL) | 5 (≈ 771 µg/mL) |  |  |  |  | 
9 | Oc1ccc2ccc(O)cc2c1 [2,7-dihydroxynaphthalene] |  | 2 |  | 1 | 0.31 (≈ 49.7 µg/mL) | 0.62 (≈ 99.3 µg/mL) |  |  |  |  | 
10 | O=C(O)c1ccccc1-c1ccccc1 [2-biphenylcarboxylic acid] |  | 1 |  | 0 | 2.5 (≈ 496 µg/mL) | 2.5 (≈ 496 µg/mL) |  |  |  |  | 
11 | O=C(O)C=Cc1ccccc1O [2-hydroxycinnamate] | 10 mM (≈ 1640 µg/mL) | 2 | 20 mM (≈ 3280 µg/mL) | 2 |  |  | substrates of the YhcP efflux pump |  |  |  | 
12 | O=C(O)c1ccc2ccccc2c1 [2-naphthoic acid] |  | 2 |  | 1 | 10 (≈ 1720 µg/mL) | 20 (≈ 3440 µg/mL) |  |  |  |  | 
13 | O=C(O)C=Cc1ccc(O)c(O)c1 [3,4-dihydroxycinnamate] | 0.62 mM (≈ 112 µg/mL) | 1 | 0.62 mM (≈ 112 µg/mL) | 0 |  |  |  |  |  |  | 
14 | COc1cc(C=CC(=O)O)cc(OC)c1O [3,5-dimethoxy-4-hydroxycinnamate] | 10 mM (≈ 2240 µg/mL) | 1 | 10 mM (≈ 2240 µg/mL) | 0 |  |  |  |  |  |  | 
15 | O=C(O)c1cc2ccccc2cc1O [3-hydroxy-2-naphthoic acid] |  | 1 |  | 0 | 1.2 (≈ 226 µg/mL) | 1.2 (≈ 226 µg/mL) |  |  |  |  | 
16 | O=C(O)c1ccc2cc(O)ccc2c1 [6-hydroxy-2-naphthoic acid] |  | 8 |  | 3 | 2.5 (≈ 470 µg/mL) | 20 (≈ 3760 µg/mL) | substrates of the YhcP efflux pump |  |  |  | 
17 | O=C(O)c1ccccc1 [Benzoate] | 25 mM (≈ 3050 µg/mL) | 1 | 25 mM (≈ 3050 µg/mL) | 0 |  |  |  |  |  |  | 
18 | O=C(O)C=Cc1ccccc1 [CA, cinnamic acid] |  | 2 |  | 1 | 10 (≈ 1480 µg/mL) | 20 (≈ 2960 µg/mL) |  | hypersensitive | −83 | slight difference | highly upregulated
19 | COC(=O)c1ccc(O)cc1 [Methyl paraben] |  | 1 |  | 0 | 3.8 (≈ 578 µg/mL) | 3.8 (≈ 578 µg/mL) |  |  |  |  | 
20 | O=C(O)c1ccccc1O [Salicylate] | 100 mM (≈ 13800 µg/mL) | 1 | 100 mM (≈ 13800 µg/mL) | 0 |  |  |  |  |  |  | 
21 | C=C1CCOC1=O [Tulipalin] | 0.008% | 1 | 0.008% | 0 |  |  |  |  |  |  | 
22 | C[S+](C)[O-] [dimethyl sulfoxide (DMSO), dimethyl sulfoxide] | 20% | 1 | 20% | 0 |  |  |  |  |  |  | 
